Reference: PubChem BioAssay AID1918936 (Molecular Pharmacology Branch, DTP, NCI, 2023)
Where “and” joins values, the source holds several entries; their conditions need not be identical. Identical values can stand only once. One block for each molecule: values may come before it.

Test system: 349418-098-R-PDC complex spheroid viability
Assay: Anticancer human tumor 349418-098-R-PDC patient-derived lung adenocarcinoma cell line growth inhibition
Settings: for viability, T/C: stronger effect = lower value
Outline: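 Drug combinations with the LSD1 inhibitor iadademstat tested on tumor cells co-cultured as spheroids with endothelial cells and mesenchymal stem cells. Concentrations descended in half-log increments from clinical Cmax or 10 microM.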

[1] = curve of first compound, second compound 0.1 µM
[2] = curve of first compound, second compound 0.316 µM
[3] = curve of first compound, second compound 1 µM
[4] = curve of first compound, second compound 3.16 µM
[5] = curve of first compound, second compound 10 µM
[6] = second compound 0.1 µM, first compound 0.00316 µM
[7] = second compound 0.1 µM, first compound 0.01 µM
[8] = second compound 0.1 µM, first compound 0.0316 µM
[9] = second compound 0.1 µM, first compound 0.1 µM
[10] = second compound 0.316 µM, first compound 0.00316 µM
[11] = second compound 0.316 µM, first compound 0.01 µM
[12] = second compound 0.316 µM, first compound 0.0316 µM
[13] = second compound 0.316 µM, first compound 0.1 µM
[14] = second compound 1 µM, first compound 0.00316 µM
[15] = second compound 1 µM, first compound 0.01 µM
[16] = second compound 1 µM, first compound 0.0316 µM
[17] = second compound 1 µM, first compound 0.1 µM
[18] = second compound 3.16 µM, first compound 0.00316 µM
[19] = second compound 3.16 µM, first compound 0.01 µM
[20] = second compound 3.16 µM, first compound 0.0316 µM
[21] = second compound 3.16 µM, first compound 0.1 µM
[22] = second compound 10 µM, first compound 0.00316 µM
[23] = second compound 10 µM, first compound 0.01 µM
[24] = second compound 10 µM, first compound 0.0316 µM
[25] = second compound 10 µM, first compound 0.1 µM
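Further: spheroids exposed to agents for seven days before readout.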
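Wherever viability, T/C is given: 100% = DMSO vehicle control wells.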

IC50 (curve of compound): 3510 nM and 6750 nM
SMILES: O=C(c1cc(Cc2n[nH]c(=O)c3ccccc23)ccc1F)N1CCN(C(=O)C2CC2)CC1
viability, T/C (compound 0.0316 µM): 94.6% and 101%
viability, T/C (compound 0.1 µM): 97.8% and 94.5%
viability, T/C (compound 0.316 µM): 78.8% and 90.7%
viability, T/C (compound 1 µM): 65.8% and 85.2%
viability, T/C (compound 3.16 µM): 53.2% and 64%
viability, T/C (compound 10 µM): 38.9% and 42.3%

IC50 (curve of compound): > 3000 nM and 343 nM
SMILES: CCN(c1cc(-c2ccc(CN3CCOCC3)cc2)cc(C(=O)NCc2c(C)cc(C)[nH]c2=O)c1C)C1CCOCC1
viability, T/C (compound 0.00949 µM): 91.2% and 96.2%
viability, T/C (compound 0.03 µM): 100% and 97.8%
viability, T/C (compound 0.0949 µM): 93.4% and 87.5%
viability, T/C (compound 0.3 µM): 91.6% and 50.8%
viability, T/C (compound 0.949 µM): 76.7% and 26.2%
viability, T/C (compound 3 µM): 68.7% and 10%

The next lines start with the molecule.

SMILES: Nc1ncn(C2CC(O)C(CO)O2)c(=O)n1 (stereo not given)
viability, T/C (compound 0.00316 µM): 88.2% and 96.1%
viability, T/C (compound 0.01 µM): 59% and 91.5%
viability, T/C (compound 0.0316 µM): 47.1% and 75.4%
viability, T/C (compound 0.1 µM): 32.5% and 45.5%
viability, T/C (compound 0.316 µM): 27.8% and 37.1%
viability, T/C (compound 1 µM): 23.9% and 27.6%
IC50 (curve of compound): 21.3 nM and 89.3 nM

SMILES: CC(C)CC(NC(=O)CNC(=O)c1cc(Cl)ccc1Cl)B1OC(=O)CC(CC(=O)O)(C(=O)O)O1 (stereo not given) + NC1CCC(NC2CC2c2ccccc2)CC1
IC50 [1]: 0.62 nM
IC50 [2]: 0.661 nM
IC50 [3]: 0.681 nM
IC50 [4]: 0.596 nM
IC50 [5]: 0.606 nM
viability, T/C (second compound 0.1 µM, first compound 0.000316 µM): 89.2%
viability, T/C (second compound 0.1 µM, first compound 0.001 µM): 22%
viability, T/C [6]: 4.81%
viability, T/C [7]: 1.88%
viability, T/C [8]: 1.17%
viability, T/C [9]: 1.44%
viability, T/C (second compound 0.316 µM, first compound 0.000316 µM): 97.2%
viability, T/C (second compound 0.316 µM, first compound 0.001 µM): 23.5%
viability, T/C [10]: 4.46%
viability, T/C [11]: 1.83%
viability, T/C [12]: 1.73%
viability, T/C [13]: 1.09%
viability, T/C (second compound 1 µM, first compound 0.000316 µM): 96.5%
viability, T/C (second compound 1 µM, first compound 0.001 µM): 26.8%
viability, T/C [14]: 4.37%
viability, T/C [15]: 1.55%
viability, T/C [16]: 1.3%
viability, T/C [17]: 0.81%
viability, T/C (second compound 3.16 µM, first compound 0.000316 µM): 82.2%
viability, T/C (second compound 3.16 µM, first compound 0.001 µM): 23.4%
viability, T/C [18]: 4.76%
viability, T/C [19]: 1.66%
viability, T/C [20]: 1.29%
viability, T/C [21]: 0.98%
viability, T/C (second compound 10 µM, first compound 0.000316 µM): 90.5%
viability, T/C (second compound 10 µM, first compound 0.001 µM): 18.7%
viability, T/C [22]: 4.32%
viability, T/C [23]: 1.66%
viability, T/C [24]: 1.03%
viability, T/C [25]: 0.65%

SMILES: COc1cc(C2c3cc4c(cc3C(OC3OC5COC(C)OC5C(O)C3O)C3COC(=O)C23)OCO4)cc(OC)c1O (stereo not given)
viability, T/C (compound 0.00949 µM): 93.8% and 95.9%
viability, T/C (compound 0.03 µM): 85.4% and 73.6%
viability, T/C (compound 0.0949 µM): 48.8% and 24.1%
viability, T/C (compound 0.3 µM): 13.5% and 6.74%
viability, T/C (compound 0.949 µM): 7.1% and 4.19%
viability, T/C (compound 3 µM): 4.85% and 3.34%
IC50 (curve of compound): 91 nM and 52 nM

SMILES: COc1cc(Nc2ncc3c(n2)-c2ccc(Cl)cc2C(c2c(F)cccc2OC)=NC3)ccc1C(=O)O
viability, T/C (compound 0.00316 µM): 81.5% and 59.7%
viability, T/C (compound 0.01 µM): 63.8% and 43.1%
viability, T/C (compound 0.0316 µM): 35.4% and 41.2%
viability, T/C (compound 0.1 µM): 40.7% and 45.3%
viability, T/C (compound 0.316 µM): 31.1% and 40.4%
viability, T/C (compound 1 µM): 31.7% and 39.1%
IC50 (curve of compound): 17.5 nM and 6.2 nM

SMILES: Nc1ncn(C2CC(O)C(CO)O2)c(=O)n1 (stereo not given) + NC1CC1c1ccc(-c2cccc(O)c2)cc1
IC50 [1]: 89.4 nM
IC50 [2]: 90.3 nM
IC50 [3]: 88.5 nM
IC50 [4]: 95.3 nM
IC50 [5]: 62.8 nM
viability, T/C [6]: 102%
viability, T/C [7]: 99.1%
viability, T/C [8]: 78.3%
viability, T/C [9]: 45.8%
viability, T/C (second compound 0.1 µM, first compound 0.316 µM): 37.3%
viability, T/C (second compound 0.1 µM, first compound 1 µM): 28.2%
viability, T/C [10]: 113%
viability, T/C [11]: 95%
viability, T/C [12]: 88.4%
viability, T/C [13]: 44.2%
viability, T/C (second compound 0.316 µM, first compound 0.316 µM): 32.9%
viability, T/C (second compound 0.316 µM, first compound 1 µM): 27.9%
viability, T/C [14]: 105%
viability, T/C [15]: 105%
viability, T/C [16]: 83.4%
viability, T/C [17]: 45.8%
viability, T/C (second compound 1 µM, first compound 0.316 µM): 32.5%
viability, T/C (second compound 1 µM, first compound 1 µM): 27.1%
viability, T/C [18]: 111%
viability, T/C [19]: 108%
viability, T/C [20]: 85.5%
viability, T/C [21]: 48.4%
viability, T/C (second compound 3.16 µM, first compound 0.316 µM): 30.6%
viability, T/C (second compound 3.16 µM, first compound 1 µM): 25.1%
viability, T/C [22]: 92.4%
viability, T/C [23]: 78.3%
viability, T/C [24]: 67.8%
viability, T/C [25]: 38.3%
viability, T/C (second compound 10 µM, first compound 0.316 µM): 28%
viability, T/C (second compound 10 µM, first compound 1 µM): 26.7%
